“Also recorded” adds a separate entry of the source.
B1: F-spondin: secreted multi-domain protein that promotes neural cell adhesion and neurite extension; extracellular ligand of APP (protein, UniProt Q9HCB6 29-807, looked up)
Spondin-1: FSDETLDKVPKSEGYCSRILRAQGTRREGYTEFSLRVEGDPDFYKPGTSYRVTLSAAPPSYFRGFTLIALRENREGDKEEDHAGTFQIIDEEETQFMSNCPVAVTESTPRRRTRIQVFWIAPPAGTGCVILKASIVQKRIIYFQDEGSLTKKLCEQDSTFDGVTDKPILDCCACGTAKYRLTFYGNWSEKTHPKDYPRRANHWSAIIGGSHSKNYVLWEYGGYASEGVKQVAELGSPVKMEEEIRQQSDEVLTVIKAKAQWPAWQPLNVRAAPSAEFSVDRTRHLMSFLTMMGPSPDWNVGLSAEDLCTKECGWVQKVVQDLIPWDAGTDSGVTYESPNKPTIPQEKIRPLTSLDHPQSPFYDPEGGSITQVARVVIERIARKGEQCNIVPDNVDDIVADLAPEEKDEDDTPETCIYSNWSPWSACSSSTCDKGKRMRQRMLKAQLDLSVPCPDTQDFQPCMGPGCSDEDGSTCTMSEWITWSPCSISCGMGMRSRERYVKQFPEDGSVCTLPTEETEKCTVNEECSPSSCLMTEWGEWDECSATCGMGMKKRHRMIKMNPADGSMCKAETSQAEKCMMPECHTIPCLLSPWSEWSDCSVTCGKGMRTRQRMLKSLAELGDCNEDLEQVEKCMLPECPIDCELTEWSQWSECNKSCGKGHVIRTRMIQMEPQFGGAPCPETVQRKKCRIRKCLRNPSIQKLRWREARESRRSEQLKEESEGEQFPGCRMRPWTAWSECTKLCGGGIQERYMTVKKRFKSSQFTSCKDKKEIRACNVHPC

Tests used:
[1] = system: Ga14-Tip60 dependent transcription mediated by APP (γ-secretase cleavage); test: Ga14-Tip60 transactivation assay, cells co-transfected with APP and Fe65; format: cell-based; conditions: HEK293 cells; DAPT 2 and 10 μM; inhibition was incomplete; FIG. 2C
Experimental: (§1) HEK293, HeLa and COS7 cells were transfected at 50 to 80% confluency in 6-well plates using Fugene6 reagent (Roche). For Ga14-Tip60 transactivation assays, HEK293 cells were co-transfected with five plasmids: (1) pG5E1B-luc=0.15 μg; (2) pCMV-LacZ=0.10 μg; (3) pM-Tip60=0.5 μg; (4) pCMV-FE65=0.5 μg; and (5) 0.05-1.0 μg pCMV-APP, 0.025-0.5 μg pCMV-Sport6-APLP1, or 0.05-1.0 μg pcDNA3.1-APLP2 as indicated. For the Fe65 titration experiments, HEK293 cells were cotransfected with five plasmids: (1) pG5E1B-luc=0.15 μg; (2) pCMV-LacZ=0.10 μg; (3) pM-Tip60=0.5 μg; (4) 0.5 μg of APP, 0.25 μg of APLP1, or 0.5 μg of APLP2; and (5) 0-2.0 μg pCMV-Fe65. Cells were harvested 2 days after transfection in 0.25 ml/well of reporter lysis buffer (Promega), and their Luciferase and β-galctosidase activities were determined with the Promega luciferase assay kit using a chemiluminescence reader from Berthold, and with the O-nitrophenyl-D-galacto-pyranoside assay for β-galactosidase, respectively. […]
(§2) For all three proteins (APP, APLP1, and APLP2), a bell-shaped dose-response curve of transactivation that depended on APP or an APLP was observed (FIG. 2A). […] Again, a dose-dependent, highly specific transactivation of Ga14-dependent transcription was detected. […]

[2] = system: Ga14-Tip60 dependent transcription mediated by APLP1 (γ-secretase cleavage); test: Ga14-Tip60 transactivation assay, cells co-transfected with APLP1 and Fe65; format: cell-based; conditions: HEK293 cells; DAPT 2 and 10 μM; inhibition was incomplete; FIG. 2C
Experimental: as §1, §2

[3] = system: Ga14-Tip60 dependent transcription mediated by APLP2 (γ-secretase cleavage); test: Ga14-Tip60 transactivation assay, cells co-transfected with APLP2 and Fe65; format: cell-based; conditions: HEK293 cells; DAPT 2 and 10 μM; inhibition was incomplete; FIG. 2C
Experimental: as §1, §2

[4] = system: γ-secretase; test: Immunoblotting of C-terminal fragments (CTFs) in transfected HEK293 cells; format: cell-based
Experimental: HEK293, HeLa and COS7 cells were transfected at 50 to 80% confluency in 6-well plates using Fugene6 reagent (Roche). For Ga14-Tip60 transactivation assays, HEK293 cells were co-transfected with five plasmids: (1) pG5E1B-luc=0.15 μg; (2) pCMV-LacZ=0.10 μg; (3) pM-Tip60=0.5 μg; (4) pCMV-FE65=0.5 μg; and (5) 0.05-1.0 μg pCMV-APP, 0.025-0.5 μg pCMV-Sport6-APLP1, or 0.05-1.0 μg pcDNA3.1-APLP2 as indicated. For the Fe65 titration experiments, HEK293 cells were cotransfected with five plasmids: (1) pG5E1B-luc=0.15 μg; (2) pCMV-LacZ=0.10 μg; (3) pM-Tip60=0.5 μg; (4) 0.5 μg of APP, 0.25 μg of APLP1, or 0.5 μg of APLP2; and (5) 0-2.0 μg pCMV-Fe65. Cells were harvested 2 days after transfection in 0.25 ml/well of reporter lysis buffer (Promega), and their Luciferase and β-galctosidase activities were determined with the Promega luciferase assay kit using a chemiluminescence reader from Berthold, and with the O-nitrophenyl-D-galacto-pyranoside assay for β-galactosidase, respectively. The luciferase activity was standardized by the β-galactosidase activity to control for transfection efficiency and further normalized with the transactivation level with cells expressing no APPs or Fe65. Values shown are averages of transactivation assays performed in triplates. For immunoblotting analyses, HEK293 were transfected with 1 μg expression plasmids encoding APP, APLP1, APLP2, SynCam, or neurexin 1β, with or without 0.25 μg of BACE 1 expression vector. For APLP1 cleavage experiments, 1 μg of APLP1 or APP was cotransfected with BACE (0.25 μg and 0.5 μg) or ADAM 9 (0.5 μg and 1.0 μg) in HEK293, HeLa and COS cells. The cell extracts or media were harvested 24 hours after the transfection. Where indicated, γ-secretase inhibitor IX (DAPT; Calbiochem) was added (2 μM final concentration) 6 hrs before harvesting the cells.
SDS-PAGE and Immunoblotting experiments were performed using standard procedures well know to one of ordinary skill in the are with either regular SDS gels or tricine gels. Lanes were loaded with ˜20 μg of protein from whole cell extracts harvested in sample buffer, and analysed by immunoblotting after SDS-PAGE using antibody dilutions of 1:1,000-2,000 for primary and 1:10,000 HRP conjugated goat-anti-rabbit secondary antibodies (ICN). For immunoblotting analysis of secreted proteins, supernatants from transfected cells (30 μl with approximately 5 μg protein) were loaded per lane.
In the next set of experiments these antibodies were employed to probe for APP, APLP1, and APLP2 cleavage in cells that either expressed these proteins alone or in combination with BACE 1 (FIG. 4). As negative controls, two other neuronal cell-surface proteins, […] (Nrx1β) and SynCAM (36,37,39) were examined. For each of the five proteins studied, six conditions were investigated: HEK293 control cells (lane 1), transfected cells only expressing BACE 1 (lane 2), or cells transfected either with APP, APLP1, APLP2, neurexin 1β (Nrx1β), or SynCAM alone (lanes 3 and 5) or together with BACE 1 (lanes 4 and 6) were incubated in the absence (lanes 1-4) or presence of the γ-secretase inhibitor DAPT ([…]; lanes 5-6). Transfected proteins (indicated on the right) were examined by immunoblotting (20 μg cell protein/lane) using regular SDS-PAGE (top panel for each protein) to monitor the full-length proteins (FL), or by tricine gel electrophoresis to detect their CTFs (bottom panel for each protein). […]

[5] = system: central APP domain (CAD) of APP, APLP1 and APLP2; test: F-spondin binding to the central APP domain (CAD); conditions: extracellular ligand; reelin domain or reelin and spondin domains sufficient
[6] = target: β-secretase cleavage sites of APP (Homo sapiens, UniProt P05067); test: Effect of F-spondin binding on β-secretase cleavage of APP
Sequence of β-secretase cleavage sites of APP (P05067 18-770): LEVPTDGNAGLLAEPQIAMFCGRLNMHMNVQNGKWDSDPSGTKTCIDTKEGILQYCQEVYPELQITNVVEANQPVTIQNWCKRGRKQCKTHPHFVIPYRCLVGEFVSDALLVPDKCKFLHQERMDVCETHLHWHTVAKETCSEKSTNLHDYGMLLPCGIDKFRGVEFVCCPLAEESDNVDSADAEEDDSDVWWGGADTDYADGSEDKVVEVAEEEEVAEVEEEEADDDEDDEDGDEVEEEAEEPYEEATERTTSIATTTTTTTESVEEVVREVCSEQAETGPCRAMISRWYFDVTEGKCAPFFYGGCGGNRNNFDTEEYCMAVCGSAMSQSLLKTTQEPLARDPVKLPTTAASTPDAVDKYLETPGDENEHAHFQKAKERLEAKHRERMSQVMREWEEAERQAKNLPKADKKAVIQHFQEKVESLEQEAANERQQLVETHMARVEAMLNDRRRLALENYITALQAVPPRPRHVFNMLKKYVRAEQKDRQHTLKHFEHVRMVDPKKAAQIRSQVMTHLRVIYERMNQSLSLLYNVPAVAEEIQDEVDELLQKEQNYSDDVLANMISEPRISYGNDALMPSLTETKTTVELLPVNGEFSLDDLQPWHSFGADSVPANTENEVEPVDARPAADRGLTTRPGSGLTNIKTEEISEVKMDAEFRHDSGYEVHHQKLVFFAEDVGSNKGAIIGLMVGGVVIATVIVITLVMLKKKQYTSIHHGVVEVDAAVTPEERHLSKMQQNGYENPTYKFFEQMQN

Molecule	inhibition of transactivation mediated by APP [1]	inhibition of transactivation mediated by APLP1 [2]	inhibition of transactivation mediated by APLP2 [3]	CTFs of APLP1 upon DAPT treatment ([4]; HEK293 cells transfected with APLP1, with or without BACE 1, DAPT (2 mM [sic]), FIG. 4)	CTFs of APLP2 upon DAPT treatment ([4]; HEK293 cells transfected with APLP2, with or without BACE 1, DAPT (2 mM [sic]), FIG. 4)	CTFs of APP upon DAPT treatment ([4]; HEK293 cells transfected with APP, with or without BACE 1, DAPT added 6 hrs before harvesting, tricine gel immunoblot)	CTFs of neurexin 1β/APP hybrid upon DAPT treatment ([4]; HEK293 cells transfected with Nrx1β/APP hybrid, with or without BACE 1, FIG. 6B)	CTFs of neurexin 1β upon DAPT treatment ([4]; HEK293 cells transfected with neurexin 1β, DAPT (2 mM [sic]), said to be most likely an artifact, FIG. 4)	binding to the central APP domain (CAD) of APP, APLP1 and APLP2 [5]	effect of binding on cleavage at the β-secretase cleavage sites [6]
C[C@H](NC(=O)Cc1cc(F)cc(F)c1)C(=O)N[C@H](C(=O)OC(C)(C)C)c1ccccc1 [DAPT]	Significant inhibition	Significant inhibition	Significant inhibition	very abundant	very abundant	very abundant; also recorded: massive accumulation of CTFs	massive accumulation of CTFs	CTFs were also observed		
B1									binds	inhibits the cleavage

Source: patent publication US20050112696A1, “Compositions, methods and assays related to secretase cleavage specificity” (The University of Texas Southwestern Medical Center, priority 2003, published 2005)
